In PubChem BioAssay (NCI):
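GI50 is the concentration that inhibits growth by half. TGI is the concentration that stops growth completely.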

Assays:
Assay in all cases: NCI-60 cell line screen, 384-well format
A498 renal = system: A498 renal
CAKI-1 renal = system: CAKI-1 renal
SF-539 CNS = system: SF-539 CNS
IGROV1 ovarian = system: IGROV1 ovarian
U251 glioblastoma = system: U251 glioblastoma
COLO 205 colon = system: COLO 205 colon
DU-145 prostate = system: DU-145 prostate
MALME-3M melanoma = system: MALME-3M melanoma
K-562 leukemia = system: K-562 leukemia
MCF7 breast = system: MCF7 breast
MDA-MB-468 breast = system: MDA-MB-468 breast
MDA-MB-435 melanoma = system: MDA-MB-435 melanoma
SF-295 CNS = system: SF-295 CNS
SK-MEL-5 melanoma = system: SK-MEL-5 melanoma
SK-MEL-2 melanoma = system: SK-MEL-2 melanoma
M14 melanoma = system: M14 melanoma
HCT-116 colon = system: HCT-116 colon
MOLT-4 leukemia = system: MOLT-4 leukemia
NCI-H23 lung = system: NCI-H23 lung
HL-60(TB) leukemia = system: HL-60(TB) leukemia
PC-3 prostate = system: PC-3 prostate
A549 NSCLC = system: A549 NSCLC
HT29 colon = system: HT29 colon
SF-268 CNS = system: SF-268 CNS
SN12C renal = system: SN12C renal
HOP-92 NSCLC = system: HOP-92 NSCLC
HCT-15 colon = system: HCT-15 colon
SW-620 colon = system: SW-620 colon
SNB-75 CNS = system: SNB-75 CNS
MDA-MB-231 breast = system: MDA-MB-231 breast
NCI-H226 lung = system: NCI-H226 lung
NCI-H460 NSCLC = system: NCI-H460 NSCLC
HS 578T breast = system: HS 578T breast
T-47D breast = system: T-47D breast
SK-OV-3 ovarian = system: SK-OV-3 ovarian
UACC-257 melanoma = system: UACC-257 melanoma
NCI-H322M lung = system: NCI-H322M lung
SK-MEL-28 melanoma = system: SK-MEL-28 melanoma
NCI-H522 lung = system: NCI-H522 lung
OVCAR-8 ovarian = system: OVCAR-8 ovarian
ACHN renal = system: ACHN renal
RXF 393 renal = system: RXF 393 renal
OVCAR-5 ovarian = system: OVCAR-5 ovarian
SNB-19 CNS = system: SNB-19 CNS
SR leukemia = system: SR leukemia
OVCAR-4 ovarian = system: OVCAR-4 ovarian
786-0 renal = system: 786-0 renal
EKVX NSCLC = system: EKVX NSCLC
OVCAR-3 ovarian = system: OVCAR-3 ovarian
HOP-62 NSCLC = system: HOP-62 NSCLC
BT-549 breast = system: BT-549 breast
KM12 colon = system: KM12 colon
UO-31 renal = system: UO-31 renal
UACC-62 melanoma = system: UACC-62 melanoma
TK-10 renal = system: TK-10 renal

SMILES: C#CC[C@H](c1nc2cc(Cl)ccc2c(=O)n1Nc1ccccc1)N(CCCN)C(=O)c1cccc(Cl)c1F
- GI50 (A498 renal): 553 nM
- TGI (A498 renal): 1820 nM
- GI50 (CAKI-1 renal): 795 nM
- TGI (CAKI-1 renal): 2030 nM
- GI50 (SF-539 CNS): 27.3 nM
- TGI (SF-539 CNS): 75.1 nM
- GI50 (IGROV1 ovarian): 1030 nM
- TGI (IGROV1 ovarian): 2220 nM
- GI50 (U251 glioblastoma): 45 nM
- TGI (U251 glioblastoma): 1330 nM
- GI50 (COLO 205 colon): 30.3 nM
- TGI (COLO 205 colon): 82.9 nM
- GI50 (DU-145 prostate): 58.9 nM
- TGI (DU-145 prostate): 1060 nM
- GI50 (MALME-3M melanoma): 189 nM
- TGI (MALME-3M melanoma): 1760 nM
- GI50 (K-562 leukemia): 44.9 nM
- TGI (K-562 leukemia): 219 nM
- GI50 (MCF7 breast): 23.1 nM
- TGI (MCF7 breast): 1110 nM
- GI50 (MDA-MB-468 breast): 18.3 nM
- TGI (MDA-MB-468 breast): 39.6 nM
- GI50 (MDA-MB-435 melanoma): 17.8 nM
- TGI (MDA-MB-435 melanoma): 35.9 nM
- GI50 (SF-295 CNS): 227 nM
- TGI (SF-295 CNS): 650 nM
- GI50 (SK-MEL-5 melanoma): 77.4 nM
- TGI (SK-MEL-5 melanoma): 737 nM
- GI50 (SK-MEL-2 melanoma): 21.6 nM
- TGI (SK-MEL-2 melanoma): 43.5 nM
- GI50 (M14 melanoma): 363 nM
- TGI (M14 melanoma): 1440 nM
- GI50 (HCT-116 colon): 36.5 nM
- TGI (HCT-116 colon): 1170 nM
- GI50 (MOLT-4 leukemia): 19.4 nM
- TGI (MOLT-4 leukemia): 34.4 nM
- GI50 (NCI-H23 lung): 73.7 nM
- TGI (NCI-H23 lung): 799 nM
- GI50 (HL-60(TB) leukemia): 19.9 nM
- TGI (HL-60(TB) leukemia): 34.6 nM
- GI50 (PC-3 prostate): 57 nM
- TGI (PC-3 prostate): 1590 nM
- GI50 (A549 NSCLC): 62.5 nM
- TGI (A549 NSCLC): 1880 nM
- GI50 (HT29 colon): 36.1 nM
- TGI (HT29 colon): 173 nM
- GI50 (SF-268 CNS): 48.6 nM
- TGI (SF-268 CNS): 1450 nM
- GI50 (SN12C renal): 109 nM
- TGI (SN12C renal): 1860 nM
- GI50 (HOP-92 NSCLC): 674 nM
- TGI (HOP-92 NSCLC): 2140 nM
- GI50 (HCT-15 colon): 1500 nM
- TGI (HCT-15 colon): 2850 nM
- GI50 (SW-620 colon): 65.2 nM
- TGI (SW-620 colon): 1250 nM
- GI50 (SNB-75 CNS): 58.9 nM
- TGI (SNB-75 CNS): 1530 nM
- GI50 (MDA-MB-231 breast): 63 nM
- TGI (MDA-MB-231 breast): 1700 nM
- GI50 (NCI-H226 lung): 1110 nM
- TGI (NCI-H226 lung): 2310 nM
- GI50 (NCI-H460 NSCLC): 48 nM
- TGI (NCI-H460 NSCLC): 1120 nM
- GI50 (HS 578T breast): 17.8 nM
- TGI (HS 578T breast): 44.8 nM
- GI50 (T-47D breast): 57.7 nM
- TGI (T-47D breast): 1600 nM
- GI50 (SK-OV-3 ovarian): 29.9 nM
- TGI (SK-OV-3 ovarian): 648 nM
- GI50 (UACC-257 melanoma): 60.4 nM
- TGI (UACC-257 melanoma): 1900 nM
- GI50 (NCI-H322M lung): 52.8 nM
- TGI (NCI-H322M lung): 1520 nM
- GI50 (SK-MEL-28 melanoma): 1290 nM
- TGI (SK-MEL-28 melanoma): 2560 nM
- GI50 (NCI-H522 lung): 20 nM
- TGI (NCI-H522 lung): 40.2 nM
- GI50 (OVCAR-8 ovarian): 189 nM
- TGI (OVCAR-8 ovarian): 1220 nM
- GI50 (ACHN renal): 1110 nM
- TGI (ACHN renal): 2320 nM
- GI50 (RXF 393 renal): 41 nM
- TGI (RXF 393 renal): 288 nM
- GI50 (OVCAR-5 ovarian): 468 nM
- TGI (OVCAR-5 ovarian): 1860 nM
- GI50 (SNB-19 CNS): 863 nM
- TGI (SNB-19 CNS): 2160 nM
- GI50 (SR leukemia): 18.9 nM
- TGI (SR leukemia): 34.3 nM
- GI50 (OVCAR-4 ovarian): 521 nM
- TGI (OVCAR-4 ovarian): 2090 nM
- GI50 ([…]-0 renal): 678 nM
- TGI (786-0 renal): 1960 nM
- GI50 (EKVX NSCLC): 89.6 nM
- TGI (EKVX NSCLC): 1460 nM
- GI50 (OVCAR-3 ovarian): 30.2 nM
- TGI (OVCAR-3 ovarian): 277 nM
- GI50 (HOP-62 NSCLC): 354 nM
- TGI (HOP-62 NSCLC): 1540 nM
- GI50 (BT-549 breast): 166 nM
- TGI (BT-549 breast): 1080 nM
- GI50 (KM12 colon): 56.8 nM
- TGI (KM12 colon): 670 nM
- GI50 (UO-31 renal): 1790 nM
- TGI (UO-31 renal): 3.18 µM
- GI50 (UACC-62 melanoma): 51.7 nM
- TGI (UACC-62 melanoma): 1440 nM
- GI50 (TK-10 renal): 1070 nM
- TGI (TK-10 renal): 2270 nM
